From patent US20230348779A1, “FLUORESCENT COMPOUND AND FLUORESCENTLY LABELED BIOLOGICAL SUBSTANCE USING THE SAME” (FUJIFILM Corporation, priority 2021, published 2023)
Converted amounts (≈) assume the structure as drawn.

Assays:
Assay type in all cases: physicochemical
[1] = Evaluation of light resistance; settings: PBS pH 7.4, xenon lamp 22 mW/cm^2, exposure time until absorbance at absorption peak decreases by 20%
Protocol: The compound synthesized above was dissolved in a PBS solution (pH 7.4) so that the absorbance at the absorption peak wavelength was 0.095 to 0.105. In a state where this solution was exposed using a merry-go-round type light irradiator (xenon lamp UXL-500D-O manufactured by Ushio Inc., HA-50 filter, Y44 filter, exposure intensity: 22 mW/cm^2 (in terms of 500 nm)), the absorbance at the absorption peak wavelength of each compound was measured over time with a spectrometer (Agilent 8453, manufactured by Agilent Technologies, Inc.). The absorbance at the absorption peak wavelength before light exposure was set to 100% and the light exposure time until the absorbance at this absorption peak wavelength decreases by 20% (the absorbance at the absorption peak wavelength reaches 80%) was measured. The results were evaluated based on the following evaluation standards.
A high evaluation rank is highly preferable since stability is kept for a long time, and in the present test, it is preferable that the light resistance satisfies the evaluation rank “B” or higher from the viewpoint of practicality as the fluorescent compound.
—Evaluation Standards for Light Resistance— • A: 100 hours or more • B: 50 hours or more and less than 100 hours • C: 25 hours or more and less than 50 hours • D: 2 hours or more and less than 25 hours • E: Less than 2 hours • F: Not evaluable due to low water solubility

[2] = Evaluation of fluorescence quantum yield; settings: PBS solution (pH 7.4)
Protocol: A PBS solution (pH 7.4) of the above compound was evaluated according to the method described in the following reference document.
“A Guide to Recording Fluorescence Quantum Yields” (a HORIBA Scientific document, available from https://www.horiba.com/fileadmin/uploads/Scientific/Documents/Fluorescence/quantumyields trad.pdf)
Regarding the fluorescence quantum yield, a high evaluation rank is highly preferable since the fluorescence quantum yield is excellent, and in the present test, it is preferable that the fluorescence quantum yield satisfies the evaluation rank “C” or higher from the viewpoint of practicality as the fluorescent compound.
—Evaluation Standards for Fluorescence Quantum Yield— • A: 0.5 or more • B: 0.3 or more and less than 0.5 • C: 0.1 or more and less than 0.3 • D: less than 0.1 • E: not evaluable due to low water solubility

[3] = Evaluation of water solubility; settings: PBS pH 7.4, 1% DMSO, 200 μM if completely dissolved, filtrate concentration by UHPLC; for solubility at 30 min: PBS pH 7.4 with 1% DMSO, aqueous buffer, kinetic from dmso stock
Protocol: 5 μL of a DMSO solution having a concentration of 20 mM of the above compound (hereinafter, referred to as a sample) and 495 μL of PBS having a pH of 7.4 were added and mixed in a 1.5 mL Eppendorf tube and stirred with a multi-shaker MS300 (product name, AS ONE Corporation) at 2,000 rpm for 30 minutes. The obtained mixed solution was allowed to be left for 60 minutes with light shielding and then subjected to centrifugal precipitation (12,000 rpm, 5 minutes). For the filtrate filtered using a filter having a pore diameter of […], the sample concentration was measured with Nexera UHPLC [product name, manufactured by Shimadzu Corporation, column: Shim-pack XR-ODSII] (the sample concentration is 200 μM in a case where the sample is completely dissolved) and evaluated based on the following evaluation standards.
Regarding the water solubility, a high evaluation rank is highly preferable since the hydrophilicity is high, and in the present test, it is preferable that the water solubility satisfies the evaluation rank “C” or higher from the viewpoint of practicality as the fluorescent compound.
—Evaluation Standards for Water Solubility— • A: 100 μM or more • B: 10 μM or more and less than 100 μM • C: 1 μM or more and less than 10 μM • D: Less than 1 μM, or water solubility is low and thus concentration cannot be measured.

[4] = Evaluation of maximum molar absorption coefficient; settings: PBS solution (pH 7.4)
Protocol: A PBS solution (pH 7.4) of the above compound was evaluated according to the method described in the following reference document. The unit of the maximum molar absorption coefficient in the following evaluation standard is mol^−1 Lcm^−1.
“TECH TIP #6 Extinction Coefficients” (a document from Thermo Scientific, Inc., available from https://assets.thermofisher.com/TFS-Assets/LSG/Application-Notes/TR0006-Extinction-coeffi cients.pdf)
Regarding the maximum molar absorption coefficient, a high evaluation rank is highly preferable since the maximum molar absorption coefficient is excellent, and in the present test, it is preferable that the maximum molar absorption coefficient satisfies the evaluation rank “C” or higher from the viewpoint of practicality as the fluorescent compound.
—Evaluation Standard for Maximum Molar Absorption Coefficient— • A: 100,000 or more • B: 50,000 or more and less than 100,000 • C: 10,000 or more and less than 50,000 • D: less than 10,000 • E: not evaluable due to low water solubility

| Water solubility [3] | Compound | Light resistance [1] | Fluorescence quantum yield [2] | solubility at 30 min [3] | Maximum molar absorption coefficient [4] | Fluorescence quantum yield (comparison in words) [2] |
| --- | --- | --- | --- | --- | --- | --- |
|  | C=C[Si]1(C)C2=CC(=[N+](C)C)C=CC2=C(c2ccc(C(=O)[O-])cc2F)c2ccc(N(C)C)cc21 (stereo not shown) [Compound (2)] | A (100 hours or more) | B (0.3 or more and less than 0.5) | 1 to 10 µM (≈ 0.459 to 4.59 µg/mL) | A (100,000 or more) |  |
|  | C=C[Si]1(C)C2=CC(=[N+](C)C)C=CC2=C(c2c(OC)cc(C(=O)[O-])cc2OC)c2ccc(N(C)C)cc21 (stereo not shown) [Compound (4)] | A (100 hours or more) | B (0.3 or more and less than 0.5) | 1 to 10 µM (≈ 0.501 to 5.01 µg/mL) | A (100,000 or more) |  |
|  | C=C[Si]1(C)C2=CC(=[N+](C)C)C=CC2=C(c2sc(C(=O)[O-])cc2C)c2ccc(N(C)C)cc21 (stereo not shown) [Compound (5)] | A (100 hours or more) | D (less than 0.1) | 1 to 10 µM (≈ 0.461 to 4.61 µg/mL) | A (100,000 or more) |  |
|  | C=C[Si]1(C)C2=CC(=[N+]3CCS(=O)(=O)CC3)C=CC2=C(c2c(F)cc(C(=O)[O-])cc2F)c2ccc(N3CCS(=O)(=O)CC3)cc21 (stereo not shown) [Compound (6)] | A (100 hours or more) | B (0.3 or more and less than 0.5) | 1 to 10 µM (≈ 0.657 to 6.57 µg/mL) | A (100,000 or more) | exhibits a better fluorescence quantum yield as compared with the compound (1) |
|  | C=C[Si]1(C)C2=C/C(=N/C)C=CC2=C(c2c(F)cc(C(=O)O)cc2F)c2ccc(NC)cc21 (stereo not shown) [Compound (7)] | A (100 hours or more) | B (0.3 or more and less than 0.5) | 1 to 10 µM (≈ 0.449 to 4.49 µg/mL) | A (100,000 or more) |  |
|  | C=C[Si]1(C)C2=C/C(=N/C)C=CC2=C(c2sc(C(=O)O)cc2C)c2ccc(NC)cc21 (stereo not shown) [Compound (8)] | A (100 hours or more) | C (0.1 or more and less than 0.3) | 1 to 10 µM (≈ 0.433 to 4.33 µg/mL) | B (50,000 or more and less than 100,000) |  |
|  | C=C[Si]1(C)C2=C/C(=N/C)C=CC2=C(c2c(F)cc(C(=O)NCCOCCOCCOCCOCCC(=O)O)cc2F)c2ccc(NC)cc21 (stereo not shown) [Compound (9)] | A (100 hours or more) | B (0.3 or more and less than 0.5) | 10 to 100 µM (≈ 6.96 to 69.6 µg/mL) | A (100,000 or more) |  |
|  | C=C[Si]1(C)C2=CC(=[N+]3CC(F)C3)C=CC2=C(c2c(OC)cc(C(=O)[O-])cc2OC)c2ccc(N3CC(F)C3)cc21 (stereo not shown) [Compound (13)] |  | A (0.5 or more) | 1 to 10 µM (≈ 0.561 to 5.61 µg/mL) | B (50,000 or more and less than 100,000) |  |
|  | C=C[Si]1(C)C2=C/C(=[N+]3\CCC(F)C3)C=CC2=C(c2c(OC)cc(C(=O)[O-])cc2OC)c2ccc(N3CCC(F)C3)cc21 (stereo not shown) [Compound (14)] |  | A (0.5 or more) | 1 to 10 µM (≈ 0.589 to 5.89 µg/mL) | B (50,000 or more and less than 100,000) |  |
|  | C=C[Si]1(C)C2=C/C(=[N+](\C)CC(F)(F)F)C=CC2=C(c2c(OC)cc(C(=O)[O-])cc2OC)c2ccc(N(C)CC(F)(F)F)cc21 (stereo not shown) [Compound (15)] |  | A (0.5 or more) | 1 to 10 µM (≈ 0.637 to 6.37 µg/mL) | C (10,000 or more and less than 50,000) | exhibits a better fluorescence quantum yield as compared with the compound (4) |
| A (100 μM or more) | AlexaFluor647 | D (2 hours or more and less than 25 hours) | B (0.3 or more and less than 0.5) |  | A (100,000 or more) |  |
